# According to ChEMBL document CHEMBL2203012, “Anti-infective and herbicidal activity of N-substituted 2-aminobenzothiazoles” (Bioorg Med Chem, 2012):
# Key:
# [1] = tested on: Staphylococcus epidermidis; experiment: Antibacterial activity against Staphylococcus epidermidis H 6996/08 assessed as growth inhibition after 24 hrs by broth microdilution test; format: functional; settings: H 6996/08, 24 h
# Staphylococcus aureus [2] = experiment: Antibacterial activity against methicillin-resistant Staphylococcus aureus H 5996/08 assessed as growth inhibition after 48 hrs by broth microdilution test; format: functional; settings: H 5996/08, 48 h
# Staphylococcus aureus [3] = experiment: Antibacterial activity against methicillin-resistant Staphylococcus aureus H 5996/08 assessed as growth inhibition after 24 hrs by broth microdilution test; format: functional; settings: H 5996/08, 24 h
# [4] = tested on: Trichophyton mentagrophytes; experiment: Antifungal activity against Trichophyton mentagrophytes 445 assessed as growth inhibition after 72 hrs by CLSI M38-A broth microdilution method; format: functional, organism-based; settings: Trichophyton mentagrophytes, 445, 72 h
# [5] = Octanol-water partition coefficient, log P of the compound; format: physicochemical
# Trichosporon asahii [6] = experiment: Antifungal activity against Trichosporon asahii 1188 assessed as growth inhibition after 48 hrs by CLSI M27-A2 broth microdilution method; format: functional; settings: Trichosporon asahii, 1188, 48 h
# Mycobacterium kansasii = experiment: Antimycobacterial activity against log-phase Mycobacterium kansasii CIT11/06 assessed as growth inhibition after 5 days by alamar blue assay; format: functional; settings: CIT11/06, 120 h
# Pichia kudriavzevii [7] = experiment: Antifungal activity against Candida krusei E28 assessed as growth inhibition after 48 hrs by CLSI M27-A2 broth microdilution method; format: functional; settings: E28, 48 h
# [8] = (§1) Cytotoxicity against human THP1 cells assessed as cell death after 24 hrs by LDH assay; format: cell-based, THP-1; settings: THP-1 cells, read-out: LD50
# [9] = Lipophilicity, log K of the compound in methanol-water mixture by RP-HPLC; format: physicochemical
# Candida albicans [10] = experiment: Antifungal activity against Candida albicans ATCC 44859 assessed as growth inhibition after 48 hrs by CLSI M27-A2 broth microdilution method; format: functional; settings: ATCC 44859, 48 h
# [11] = tested on: Staphylococcus epidermidis; experiment: Antibacterial activity against Staphylococcus epidermidis H 6996/08 assessed as growth inhibition after 48 hrs by broth microdilution test; format: functional; settings: H 6996/08, 48 h
# Candida albicans [12] = experiment: Antifungal activity against Candida albicans ATCC 44859 assessed as growth inhibition after 24 hrs by CLSI M27-A2 broth microdilution method; format: functional; settings: ATCC 44859, 24 h
# Pichia kudriavzevii [13] = experiment: Antifungal activity against Candida krusei E28 assessed as growth inhibition after 24 hrs by CLSI M27-A2 broth microdilution method; format: functional; settings: E28, 24 h
# Trichosporon asahii [14] = experiment: Antifungal activity against Trichosporon asahii 1188 assessed as growth inhibition after 24 hrs by CLSI M27-A2 broth microdilution method; format: functional; settings: Trichosporon asahii, 1188, 24 h
# [15] = tested on: Trichophyton mentagrophytes; experiment: Antifungal activity against Trichophyton mentagrophytes 445 assessed as growth inhibition after 120 hrs by CLSI M38-A broth microdilution method; format: functional, organism-based; settings: Trichophyton mentagrophytes, 445, 120 h
# THP-1 = experiment: as §1; format: cell-based; settings: thp-1, 24 h
SMILES,IC80 [1] [µM],IC90 (Staphylococcus aureus [2]) [µM],IC80 (Staphylococcus aureus [3]) [µM],IC50 [4] [µM],logP [5],IC80 (Trichosporon asahii [6]) [µM],IC90 (Mycobacterium kansasii) [µM],IC80 (Pichia kudriavzevii [7]) [µM],CC50 at 24 h [8] [µM],log K [9],IC80 (Candida albicans [10]) [µM],IC80 [11] [µM],IC80 (Candida albicans [12]) [µM],IC80 (Pichia kudriavzevii [13]) [µM],IC80 (Trichosporon asahii [14]) [µM],IC50 [15] [µM],LD50 (THP-1)
COC(=O)Nc1nc2ccccc2s1,125,250,250,125,2.72,500,533,> 250,27.5,0.4251,250,500,125,> 250,250,125,–
CC(=O)Nc1nc2ccccc2s1,250,500,250,250,2.14,> 500,1300,> 500,> 30,0.3661,125,> 500,62.5,250,250,250,–
CCCCC(=O)Nc1nc2ccccc2s1,31.2,125,31.2,31.2,3.63,> 125,1090,> 125,> 30,0.578,31.2,62.5,31.2,125,62.5,62.5,–
CC(C)(C)C(=O)Nc1nc2ccccc2s1,125,500,250,62.5,4.07,> 500,1040,> 500,–,0.5891,250,500,62.5,500,> 500,250,ND(Insoluble)
CNc1nc2ccccc2s1,125,500,500,62.5,2.73,> 500,> 1830,> 500,–,0.3819,250,125,125,500,125,62.5,–
O=C(Nc1nc2ccccc2s1)c1ccccc1,> 500,500,125,62.2,4.04,> 500,533,> 500,> 30,0.6643,125,> 500,125,500,250,125,–
OC(Cn1cncn1)(Cn1cncn1)c1ccc(F)cc1F [FLUCONAZOLE],–,–,–,1.95,–,0.48,–,15.6,–,–,0.12,–,0.06,3.91,0.24,3.91,–
CC(C)CC(=O)Nc1nc2ccccc2s1,> 125,125,125,62.5,3.54,> 125,480,> 125,> 30,0.5598,125,> 125,125,> 125,125,62.5,–
NC(=O)c1cnccn1 [PYRAZINAMIDE],–,–,–,–,–,–,> 812,–,–,–,–,–,–,–,–,–,–
c1ccc(CNc2nc3ccccc3s2)cc1,> 125,> 125,> 125,> 125,4.46,> 125,–,> 125,–,0.6012,> 125,> 125,> 125,> 125,125,> 125,–
NNC(=O)c1ccncc1 [ISONIAZID],–,–,–,–,–,–,< 729,–,–,–,–,–,–,–,–,–,–
CC1(C)S[C@@H]2[C@H](NC(=O)COc3ccccc3)C(=O)N2[C@H]1C(=O)O [PENICILLIN V],62.5,500,250,–,–,–,–,–,–,–,–,250,–,–,–,–,–
O=C(Nc1nc2ccccc2s1)C1CCCCC1,> 125,> 125,> 125,> 125,4.11,> 125,960,> 125,> 30,0.688,> 125,> 125,> 125,> 125,125,> 125,–
O=C(Cc1ccccc1)Nc1nc2ccccc2s1,125,62.2,31.2,15.6,3.98,62.2,256,125,> 30,0.5413,7.81,500,3.9,62.5,31.2,125,–
